From ChEMBL document CHEMBL2311302, “Synthesis and evaluation of 5'-modified thymidines and 5-hydroxymethyl-2'-deoxyuridines as Mycobacterium tuberculosis thymidylate kinase inhibitors” (Bioorg Med Chem, 2013)
pKi: −log10 of the molar value. The source made the active and inactive calls. The calls are words filed in the database; no cut-off is given here.

Legend:
Thymidylate kinase = biological target: T1, Thymidylate kinase (Mycobacterium tuberculosis, UniProt P9WKE1); experiment: Inhibition of Mycobacterium tuberculosis thymidine monophosphate kinase by enzyme-coupling based spectrophotometric assay
T1 sequence (P9WKE1 whole entry): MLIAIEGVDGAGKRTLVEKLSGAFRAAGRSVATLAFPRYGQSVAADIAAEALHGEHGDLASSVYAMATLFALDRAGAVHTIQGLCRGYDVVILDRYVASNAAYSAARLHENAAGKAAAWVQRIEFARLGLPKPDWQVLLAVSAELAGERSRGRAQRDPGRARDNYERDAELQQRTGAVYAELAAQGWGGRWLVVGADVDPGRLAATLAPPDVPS

[1] = biological target: T2, Thymidylate kinase (Mycobacterium tuberculosis) (UniProt P9WKE1); experiment: Inhibition of Mycobacterium tuberculosis thymidine monophosphate kinase at 2.4 mM by enzyme-coupling based spectrophotometric assay
T2 sequence (whole entry): T1 sequence (P9WKE1 whole entry)

[2] = biological target: T2, Thymidylate kinase (Mycobacterium tuberculosis); experiment: Inhibition of Mycobacterium tuberculosis thymidine monophosphate kinase at 2.6 mM by enzyme-coupling based spectrophotometric assay

Cc1cn([C@H]2C[C@H](O)[C@@H](CCS(C)(=O)=O)O2)c(=O)[nH]c1=O
pKi (Thymidylate kinase): 3.47

Cc1cn([C@H]2C[C@H](O)[C@@H](CCC#N)O2)c(=O)[nH]c1=O
pKi (Thymidylate kinase): 4.32

CNS(=O)(=O)CC[C@H]1O[C@@H](n2cc(C)c(=O)[nH]c2=O)C[C@@H]1O
pKi (Thymidylate kinase): 3.62

Cc1cn([C@H]2C[C@H](O)[C@@H](CCc3nnn[nH]3)O2)c(=O)[nH]c1=O
pKi (Thymidylate kinase): 4.15

O=c1[nH]c(=O)n([C@H]2C[C@H](O)[C@@H](CCc3nnn[nH]3)O2)cc1CO
inhibition [1]: inactive

N#CCC[C@H]1O[C@@H](n2cc(CO)c(=O)[nH]c2=O)C[C@@H]1O
inhibition [2]: inactive
